The values below come from patent US12310963B2, “Pyrazole derivatives and use thereof” (Tarapeutics Science Inc., priority 2019, dated 2025).

The test system of series [1] is pulmonary arterial hypertension (PAH). The experiment in a line: Rat model of pulmonary arterial hypertension (PAH), monocrotaline-induced. It is filed as in vivo. Conditions: for mPAP, difference as compared with the vehicle group: p<0.001. As for the experimental part: SCXK (SU) 2017-0001. These rats were fed with conventional pellet feeds (Jiangsu Xietong Bio. Co., Ltd.), and were raised in a clean animal room with 12h/12h light/dark cycle. The rats were fed with foods and drinking water on an ad libitum basis. The temperature was maintained at 20-26° C., and the relative humidity was 40-70%. 120 SD rats were divided into 24 cages with 5 rats per group. […] The animals were treated in strict accordance with animal ethics regulations throughout the experiment. According to the method described in “Pharmaceutical experimental animal models: Fabrication and application” and the Standard Operating Procedure for PAH Model Construction of Model Animal Center, rats were intraperitoneally injected with a solution of 1% monocrotaline (MCT, purchased from Sigma, U.S.A.) once at a dose of 35 mg/kg. On Day 7 after the first injection of MCT, MCT was injected again at a dose of 20 mg/kg. The rats in the normal control group were intraperitoneally injected with an equivalent amount of water as a blank solvent. The specific steps were as follows: After the rats in each of the cages were fasted for 8 hours, each of the rats was weighed and recorded for the basic body weight after fasting; based on the measured basic body weight for each of the rats, the amount of MCT required to be injected for each of the rats was calculated according to the modeling dose of 35 mg/kg; based on the amount of MCT required to be injected for each of the rats, the dose for injection of a 1% MCT solution was calculated; the rats were fixed in a holder and intraperitoneally injected with the 1% MCT solution at the calculated dose; the rats were returned to the cages for routine feeding after the injection. […] The blood gas analyzer was operated following the standard operation procedure. […] Each of the rats was administered by gavage once a day starting from the day of regrouping at Week 4. The rats in the negative control group were daily administered by gavage with an equal volume of methylcellulose as vehicle. The rats in each of the groups were administered by gavage for consecutive 4 weeks (i.e., 28 days). […] The rats were weighed after fasting overnight twice a week. The administration dosage was calculated based on the weighing results. […] After the rats were under anesthesia, the pulmonary arterial pressure and the right ventricular systolic pressure of rats were measured. […] The steps were as follows. A No. 3.5 umbilical vein catheter was connected to a system pressure transducer. A formulated solution of […] sodium (purchased from Sangon) was filled into the transducer and the catheter, and bubbles were discharged. The anesthetized rat was placed on a surgical anatomical plate that is adjustable in its temperature. The temperature of the plate was adjusted to be maintained at about 37° C. The rat was fixed in supine position. The neck skin was cut with scissors to the edge of the clavicle, followed by blunt dissection of subcutaneous tissues and muscles, exposing the right external jugular vein. The adipose tissue on the surface was removed with ophthalmic surgical scissors. The external jugular vein was ligated at the […] surgical thread, and a loose knot was made at the proximal end for reserve. The external jugular vein was gently lifted with ophthalmic tweezers and cut with ophthalmic scissors to make a “V” opening. The catheter was quickly inserted, and the loose knot at the proximal end was tightened slightly to prevent bleeding. […] The catheter was further inserted slowly forward, and entered into the pulmonary artery at about 5 cm. […] The blood was transferred into an anticoagulation tube, and loaded in a blood gas analyzer to determine the indexes of partial pressure of oxygen (pO2), partial pressure of carbon dioxide (pCO2) and blood oxygen saturation (SaO2) in the blood.

Series [2] relates to human chronic eosinophilic leukemia cells EOL-1 (expressing PDGFRα). The experiment in a line: Mouse tumor model of human chronic eosinophilic leukemia cells EOL-1. It is filed as in vivo. As for the experimental part:
• 1) Bal b/c female mice, 4-6 weeks old, were purchased from Shanghai SLAC Laboratory Animal Co., Ltd., and were raised in an SPF laboratory; the drinking water and the bedding were both sterilized by autoclaving; and all the operations involving the mice were performed under aseptic conditions; • 2) On Day 0, 1×10^7 human chronic eosinophilic leukemia cells EOL-1 (expressing PDGFRα) (purchased from ATCC) were injected subcutaneously into the left flank of each of the mice; • 3) On Day 15, the mice were randomly divided into four groups with five mice per group, and were administered respectively for 14 days. […] The tumor volume was calculated as length×width×width/2 mm^3.

For series [3], the target named is T1, BaF3-FL-BRAF-V600E (stably expressing BRAF-V600E kinase) (Homo sapiens, UniProt P15056, V600E).
T1 construct: human BCR-ABL (P210 or P210/T315I mutated), full-length BRAF-V600E; expressed in transfected cells; host or cells: mouse BaF3, retroviral MSCV-Puro
T1 sequence (P15056 whole entry V600E): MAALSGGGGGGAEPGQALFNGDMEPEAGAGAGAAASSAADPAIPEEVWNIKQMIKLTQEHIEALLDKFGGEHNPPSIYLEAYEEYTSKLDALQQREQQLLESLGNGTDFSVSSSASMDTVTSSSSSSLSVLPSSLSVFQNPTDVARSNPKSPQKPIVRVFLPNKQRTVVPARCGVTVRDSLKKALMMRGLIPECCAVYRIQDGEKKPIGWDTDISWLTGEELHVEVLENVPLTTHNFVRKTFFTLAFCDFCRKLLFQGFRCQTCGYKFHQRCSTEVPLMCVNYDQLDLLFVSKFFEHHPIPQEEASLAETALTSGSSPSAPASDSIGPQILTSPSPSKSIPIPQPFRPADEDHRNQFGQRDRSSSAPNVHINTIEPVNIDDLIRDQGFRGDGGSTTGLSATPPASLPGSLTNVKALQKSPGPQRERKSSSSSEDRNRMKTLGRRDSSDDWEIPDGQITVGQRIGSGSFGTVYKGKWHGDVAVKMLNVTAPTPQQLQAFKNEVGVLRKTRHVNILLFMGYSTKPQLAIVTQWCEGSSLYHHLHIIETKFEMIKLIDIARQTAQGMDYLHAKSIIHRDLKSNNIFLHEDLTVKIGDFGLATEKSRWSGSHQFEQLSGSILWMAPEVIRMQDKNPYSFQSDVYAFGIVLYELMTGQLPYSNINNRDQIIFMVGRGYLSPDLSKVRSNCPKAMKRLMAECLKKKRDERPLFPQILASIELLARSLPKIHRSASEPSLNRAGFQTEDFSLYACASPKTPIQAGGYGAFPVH
Kind of series: Growth of BaF3-FL-BRAF-V600E cells, Cell Titer-Glo, 72 h. It is filed as cell-based, mouse. The source says:
In this example, mouse primary B cell BaF3 (purchased from ATCC, U.S.A.) was used. In addition, in this example, mouse BaF3-tel-PDGFRα (stably expressing PDGFRα kinase), mouse BaF3-tel-PDGFRβ (stably expressing PDGFRβ kinase), BaF3-P210 (stably expressing ABL kinase), BaF3-P210-T315I (stably expressing ABL-T315I kinase), BaF3-FL-BRAF-V600E (stably expressing BRAF-V600E kinase), BaF3-TEL-cKIT (stably expressing cKIT kinase), BaF3-TEL-VEGFR2 (stably expressing VEGFR2 kinase), BaF3-TEL-FGFR2 (stably expressing FGFR2 kinase) were also used. The above-mentioned cell trains were all constructed in our laboratory by the method as follows. The sequences of human BCR-ABL (P210 or P210/T315I mutated), full-length BRAF-V600E, cKIT, VEGFR2, FGFR2, PDGFRα, PDGFRβ kinase region were amplified respectively via PCR, and inserted respectively into a MSCV-Puro vector (purchased from Clontech) having a N-terminal TEL fragment and/or NPM fragment and/or TPR fragment, and stably transferred into mouse BaF3 cells by the retroviral method, and the growth factor IL-3 was removed. Eventually, cell lines which are transferred into proteins depending on PDGFRα, PDGFRβ were obtained.
In this example, solutions of the test compound at different concentrations (0.000508 μM, 0.00152 μM, 0.00457 μM, 0.0137 μM, 0.0411 μM, 0.123 μM, 0.370 μM, 1.11 μM, 3.33 μM, 10 μM) were added to the above cells. […]
In general terms: In ATP-based viability assays light output follows the ATP content of the culture.

The mark [4] stands for this setting: 45 mg/kg by gavage, 28 days, P<0.001.
Where [5] appears, read: high-dose group (45 mg/kg), P<0.001.
Where [6] appears, read: medium-dose group (30 mg/kg), P<0.01.

By GI50 is commonly meant the concentration that inhibits growth by half. Low readings indicate more potent growth inhibition, high ones less potent growth inhibition. Regarding `Cc1ccc(NC(=O)c2cccc(C(F)(F)F)n2)cc1-n1cc(-c2cncc(N3CCN(C)CC3)c2)cn1` [Compound 1, N-(4-methyl-3-(4-(5-(4-methylpiperazin-1-yl)pyridin-3-yl)-1H-pyrazol-1-yl)phenyl)-6-(trifluoromethyl)picolinamide], the “mPAP, difference as compared with the vehicle group” value in series [1] (15 mg/kg by gavage, 28 days) is “extremely significantly different”; in series [1] (30 mg/kg by gavage, 28 days), “extremely significantly different”; in series [1] (45 mg/kg by gavage, 28 days), “extremely significantly different”. The “RVSP, difference as compared with the groups of imatinib and bosentan” value is given as “no significant difference” in series [1] (30 mg/kg by gavage, 28 days) and “no significant difference” in series [1] (45 mg/kg by gavage, 28 days). The “mPAP, difference as compared with the groups of bosentan and imatinib” value is “no significant difference” in series [1] (30 mg/kg by gavage, 28 days) and “no significant difference” in series [1] (45 mg/kg by gavage, 28 days). For the same molecule, the “RVSP, difference as compared with the vehicle group” value in series [1] (30 mg/kg by gavage, 28 days, P<0.001) was “extremely significantly different”; in series [1] (setting [4]), “extremely significantly different”. Further, in series [1] (45 mg/kg by gavage, 28 days), the “RVI, difference as compared with the groups of imatinib and bosentan” value is given as “no significant difference”. Besides, the “RVI, difference as compared with the vehicle group” value in series [1] (setting [4]) is reported as “extremely significantly different”. Besides, the “partial pressure of carbon dioxide (pCO2), difference as compared with the vehicle group” value in series [1] (setting [5]) and in series [1] (setting [6]) was “extremely significantly different” each time. Moreover, the “partial pressure of oxygen (pO2), difference as compared with the vehicle group” value in series [1] (setting [5]) and in series [1] (setting [6]) was “extremely significantly different” throughout. The “blood oxygen saturation (SaO2), difference as compared with the vehicle group” value in series [1] (high-dose group (45 mg/kg), p<0.05) is on record as “significantly different”. The “RVI decrease as compared with the negative control group” value is listed as 29.6% in series [1] (high-dose group, 45 mg/kg by gavage, 28 days); 5.5% in series [1] (low-dose group, 15 mg/kg by gavage, 28 days); 9.4% in series [1] (medium-dose group, 30 mg/kg by gavage, 28 days). For the same molecule, in series [2] (5 mg/kg, 14 days after administration, by tumor weight vs control group, FIG. 1c), the “tumor growth inhibitory rate (TGI)” value is given as 96%. The “effect on tumor size (in words)” value in series [2] (5 mg/kg, FIG. 1b) is reported as “excellent effect in inhibiting the tumor”. For the same molecule, in series [2] (EOL-1 mouse model, 14 days administration, FIG. 1a), the “effect on the body weight of the mouse (in words)” value is recorded as “little effect on the body weight”. Also, in series [3] (BaF3-FL-BRAF-V600E cells, 72 hours), the GI50 turned out to be 4.7 µM. Also, the “inhibitory effect against BRAF-V600E (in words)” value in series [3] (summary of Table 2) is reported as “no inhibitory effect, or a relatively weak inhibitory effect”.
